Drawing on PMC7736581, “Activation of the IRE1 RNase through remodeling of the kinase front pocket by ATP-competitive ligands” (Nature Communications, 2020), this text covers EC50 for four compounds.

Like-named read-outs stand apart in the source and are kept apart here.

What is called EC50 is the concentration needed to bring the measured effect to its halfway point.

The subject of test [1] is T1, IRE1 (endogenous, KMS-11).
T1 construct: endogenous full-length in KMS-11 cells
In words: cells. To be noted: Homo sapiens, KMS-11, 4 h. Further details: XBP1s mRNA by branched DNA assay in KMS-11 cell lysates after compound treatment. The method, then: 15-20k KMS-11 cells in RPMI growth media were seeded into 96-well plates and treated with compounds or DMSO control over a period of 4 h the following day. RNA levels of XBP1s and DGAT2 in KMS-11 cell lysates were measured using the QuantiGene 2.0 bDNA assay technology (Thermofisher). See Supplementary Table 4 for sequences of relevant capture probes. Data analysis was carried out against an assay background control with no cell lysate (no-RNA control). In the case of AMG-18, cells were also stimulated with thapsigargin (Tg, 100 nM) 30 min after compound addition. No Tg was used when treating cells with all other compounds. Samples were run in duplicate. To investigate whether this peculiar conformation had any role in the mechanism of activation of G-1749, we evaluated different tails to substitute the ethyl carbamate on the naphthyl moiety (Fig. 3, Supplementary Table 2). […] This is likely due to clashes with residues lining the front pocket, which in turn would force the tails to occupy the back pocket and break the salt bridge, thereby causing RNase inhibition. […] Experiments in KMS-11 cells (Fig. 3b, c, right panels) confirmed the effect of these tail modifications on IRE1 RNase activation. […] The chemical substituents tolerated by the front pocket seem to be very limited: even a minor substitution of the carbamate oxygen atom to a larger [compound left out], from ethyl carbamate to propyl amide (compound 6), or from methyl carbamate to methyl or ethyl amide (compound 4 or 5, respectively), or increasing the tail length by one atom, from ethyl to propyl carbamate (compound 11), is enough to impart a switch from activation to inhibition (Fig. 3b, c). […] RNA cleavage was measured by a kinetic fluorescence assay using an XBP1-like RNA hairpin substrate and IRE1 LKR construct (Q470-L977). Background from the no-protein control was subtracted from signal before calculating fold change. Source data are provided as a Source Data file. Data are presented as the mean for measurements from two independent experiments (n = 2). c RNA levels for IRE1 RNase product XBP1s measured by bDNA assay of lysates from KMS-11 cells treated with compounds for 4 h. Background from the no-RNA control was subtracted from signal before calculating fold change. Source data are provided as a Source Data file. Data are presented as the mean for measurements from two independent experiments (n = 2). d, e Analytical Ultracentrifugation sedimentation velocity (SV-AUC) experiments for (d), IRE1 LKR (Q470-L977) unphosphorylated and autophosphorylated and (e), IRE1 LKR unphosphorylated in the presence of slight excess G-9807 and G-1749. Calculated sedimentation coefficients for IRE1 monomer (3.1 svedbergs) and dimer (4.6 svedbergs) are highlighted by dotted lines. Source data are provided as a Source Data file.

Test [2] deals with Inositol-Requiring Enzyme 1 (IRE1) (Homo sapiens, UniProt O75460). Nature of the test: biochemical. Details: gene ERN1; IRE1 cytoplasmic kinase-RNase construct; kinetic fluorescence RNA cleavage (FAM/BHQ XBP1 stem-loop) by IRE1 LKR Q470-L977. The method, then:
A 5′-Carboxyfluorescein (FAM)-and 3′-Black Hole Quencher (BHQ)-labeled single stem-loop mini-substrate containing XBP1 sequence (sequence reported in Supplementary Table 4) was used as substrate for cleavage by IRE1 LKR (Q470-L977) or IRE1 KR (G547-L977) in 20 mM HEPES pH 7.5, 50 mM potassium acetate, 1 mM magnesium acetate, 1 mM dithiothreitol, 0.05% v/v TritonX-100. Concentrations were as follows: 8 nM IRE1 LKR and 200 nM RNA substrate; 22 nM IRE1 KR-0P and 200 nM RNA substrate; 2 nM IRE1 KR 3P and 500 nM RNA substrate. RNA cleavage was measured kinetically over an hour at room temperature as an increase in fluorescence. The final reaction was carried out in 20 µL in 384-well plates. Samples were run in duplicate. To investigate whether this peculiar conformation had any role in the mechanism of activation of G-1749, we evaluated different tails to substitute the ethyl carbamate on the naphthyl moiety (Fig. 3, Supplementary Table 2). […] This is likely due to clashes with residues lining the front pocket, which in turn would force the tails to occupy the back pocket and break the salt bridge, thereby causing RNase inhibition. […] Experiments in KMS-11 cells (Fig. 3b, c, right panels) confirmed the effect of these tail modifications on IRE1 RNase activation. […] The chemical substituents tolerated by the front pocket seem to be very limited: even a minor substitution of the carbamate oxygen atom to a larger [compound left out], from ethyl carbamate to propyl amide (compound 6), or from methyl carbamate to methyl or ethyl amide (compound 4 or 5, respectively), or increasing the tail length by one atom, from ethyl to propyl carbamate (compound 11), is enough to impart a switch from activation to inhibition (Fig. 3b, c). […] RNA cleavage was measured by a kinetic fluorescence assay using an XBP1-like RNA hairpin substrate and IRE1 LKR construct (Q470-L977). Background from the no-protein control was subtracted from signal before calculating fold change. Source data are provided as a Source Data file. Data are presented as the mean for measurements from two independent experiments (n = 2). c RNA levels for IRE1 RNase product XBP1s measured by bDNA assay of lysates from KMS-11 cells treated with compounds for 4 h. Background from the no-RNA control was subtracted from signal before calculating fold change. Source data are provided as a Source Data file. Data are presented as the mean for measurements from two independent experiments (n = 2). d, e Analytical Ultracentrifugation sedimentation velocity (SV-AUC) experiments for (d), IRE1 LKR (Q470-L977) unphosphorylated and autophosphorylated and (e), IRE1 LKR unphosphorylated in the presence of slight excess G-9807 and G-1749. Calculated sedimentation coefficients for IRE1 monomer (3.1 svedbergs) and dimer (4.6 svedbergs) are highlighted by dotted lines. Source data are provided as a Source Data file.

[3] abbreviates: XBP1s mRNA increase, read-out: EC50 (KMS-11 bDNA assay, XBP1s), activators.
Setting [4] is: RNase activation, read-out: EC50 (RNase biochemical assay), activators.

Inositol-Requiring Enzyme 1 (IRE1), sequence (O75460 547-977): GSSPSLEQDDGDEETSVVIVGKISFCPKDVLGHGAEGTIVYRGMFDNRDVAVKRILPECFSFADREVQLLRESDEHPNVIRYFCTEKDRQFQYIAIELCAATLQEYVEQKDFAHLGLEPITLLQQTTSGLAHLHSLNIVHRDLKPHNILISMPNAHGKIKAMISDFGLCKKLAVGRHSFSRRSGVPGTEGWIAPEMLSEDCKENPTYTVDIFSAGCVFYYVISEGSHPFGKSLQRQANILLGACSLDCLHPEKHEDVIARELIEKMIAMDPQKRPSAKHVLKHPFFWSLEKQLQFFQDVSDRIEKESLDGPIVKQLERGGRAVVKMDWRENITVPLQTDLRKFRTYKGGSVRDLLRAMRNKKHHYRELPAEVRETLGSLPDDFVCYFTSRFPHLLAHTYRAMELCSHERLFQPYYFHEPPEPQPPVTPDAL

With `CCOC(=O)Nc1cccc2c(Oc3ncccc3-c3ccnc(N[C@H]4CCCNC4)n3)c(C)ccc12` [G-1749], the EC50 was found to be 1310 ± 168 nM in test [1] (setting [3]) and 9 ± 3 nM in test [2] (setting [4]).

`CC#CC(=O)Nc1cccc2c(Oc3ncccc3-c3ccnc(N[C@H]4CCCNC4)n3)c(C)ccc12` [G-7658]: the EC50 in test [1] (setting [3]) stood at 223 ± 33 nM; in test [2] (setting [4]), 7 ± 1 nM.

Turning to `O=c1cc(-c2n[nH]c3ncc(-c4c(F)cccc4F)cc23)nc(N2CCC(O)CC2)[nH]1` [G-9807], the figures for the EC50 in test [1] (setting [3]) and in test [2] (setting [4]) were 1770 ± 691 nM and 18 ± 3 nM, respectively.

Take `Cc1ccc2c(NS(=O)(=O)c3ccccc3Cl)cccc2c1Oc1ncccc1-c1ccnc(N[C@H]2CCCNC2)n1` [AMG-18]: the EC50 in test [1] (100 nM thapsigargin stimulation, XBP1s mRNA decrease, read-out: EC50 (KMS-11 bDNA assay, XBP1s), inhibitors) is 193 ± 36 nM; in test [2] (RNase inhibition, read-out: EC50 (RNase biochemical assay), inhibitors), 17 ± 4 nM.
